From ChEMBL document CHEMBL1201862, “PubChem BioAssay data set” (2004) come the findings set out here.

Structures are written as SMILES.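 How tested: cells in 96-well plates exposed to compound for 48 hours at five concentrations. Abbreviation: GI50, concentration required for 50% inhibition of growth.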 Active and inactive are the calls of the source. Cut-off read from the data, not from the text of the source: active = GI50 up to about 1.1 µM and inactive = higher.

Among the test systems are MOLT-4; MDA-N; SF-539; TK-10; UO-31; IGROV-1; HCT-116; ACHN; HCT-15; KM12; NCI-H23; SF-295; UACC-62; SN12C; SK-MEL-5; OVCAR-8; SW-620; CAKI-1; UACC-257; LOX IMVI.
What all share (experiment): inhibition of tumour cell growth, NCI panel, 48 h

Turning to `COc1cc(N(C)C)c(OC)cc1C=C1C=CC=C1`, the GI50 was 38.6 µM (inactive) in the assay on MOLT-4; 44.1 µM (inactive) in the assay on MDA-N; > 100 µM (inactive) in the assay on SF-539; > 100 µM (inactive) in the assay with TK-10; > 100 µM (inactive) in the assay with UO-31; > 100 µM (inactive) in the assay with IGROV-1. The GI50 with HCT-116 was 82.4 µM (inactive); in the assay with ACHN, > 100 µM (inactive); with HCT-15, more than 10 µM; with KM12 it was > 100 µM (inactive); with NCI-H23, > 100 µM (inactive); in the assay on SF-295, > 100 µM (inactive). The GI50 is 82.4 µM (inactive) with UACC-62; > 100 µM (inactive) in the assay with SN12C; > 100 µM (inactive) in the assay with SK-MEL-5; > 100 µM (inactive) in the assay with OVCAR-8; > 100 µM (inactive) with SW-620.
Regarding `CC(=O)NC1C(OCc2ccccc2)OC(COC(=O)CCCCCCCCCCNC(=O)c2cccc3c(=O)c4ccccc4[nH]c23)C(O)C1OC(C)C(=O)NC(C)C(=O)NC(CCC(N)=O)C(N)=O` (configuration not stated), the GI50 with MOLT-4 is 47.1 µM (inactive); in the assay on CAKI-1, > 100 µM (inactive); in the assay on SF-539, 92.9 µM (inactive); with TK-10 it was > 100 µM (inactive); in the assay on UO-31, > 100 µM (inactive); in the assay with UACC-257, > 100 µM (inactive). The GI50 in the assay with IGROV-1 was 50.1 µM (inactive); in the assay with HCT-116, 79.8 µM (inactive); in the assay on ACHN, 55.8 µM (inactive); in the assay on HCT-15 it was 85.3 µM; with KM12, 49.1 µM (inactive); in the assay with NCI-H23 it was 46.1 µM (inactive). Further, the GI50 with SF-295 was 71.1 µM (inactive); in the assay on LOX IMVI it was 49.3 µM (inactive); with UACC-62, 35.2 µM (inactive); in the assay on SN12C, > 100 µM (inactive); with SK-MEL-5 it was 37.4 µM (inactive); in the assay with OVCAR-8 it was 94.8 µM (inactive). Besides, the GI50 with SW-620 was 96.6 µM (inactive).
For `COC(=O)Cc1ccc(Oc2nc3ccccc3nc2-c2cccs2)cc1`, the GI50 in the assay on MOLT-4 was > 100 µM (inactive); with CAKI-1 it was > 100 µM (inactive); in the assay on SF-539, 52 µM (inactive); with TK-10 it was 95.9 µM (inactive); in the assay with UO-31 it was > 100 µM (inactive); with UACC-257 it was > 100 µM (inactive). For the same compound, the GI50 with IGROV-1 is > 100 µM (inactive); with HCT-116, > 100 µM (inactive); with ACHN, > 100 µM (inactive); in the assay with HCT-15, more than 100 µM; with KM12, > 100 µM (inactive); in the assay with NCI-H23, > 100 µM (inactive). For the same compound, the GI50 in the assay on SF-295 was 30.8 µM (inactive); with LOX IMVI, > 100 µM (inactive); in the assay on UACC-62, > 100 µM (inactive); in the assay with SN12C, > 100 µM (inactive); in the assay on SK-MEL-5, > 100 µM (inactive); in the assay with OVCAR-8 it was 36.4 µM (inactive). In addition, the GI50 with SW-620 is > 100 µM (inactive).
In the case of `COc1ccccc1[C@@H]1CCC2CC[C@@H](c3ccccc3OC)[N+]21Cc1ccccc1` (some centres not stated), the GI50 in the assay with MOLT-4 is 1.83 µM (inactive); in the assay with CAKI-1 it was 3.87 µM (inactive); with MDA-N, 0.632 µM (active); in the assay on TK-10 it was 5.74 µM (inactive); in the assay on UO-31, 2.96 µM (inactive); with UACC-257, 0.521 µM (active). The GI50 in the assay on IGROV-1 was 1.34 µM (inactive); in the assay with HCT-116, 1.6 µM (inactive); in the assay on ACHN, 3.3 µM (inactive); in the assay on HCT-15, 3.76 µM; in the assay with KM12 it was 0.522 µM (active); with NCI-H23 it was 0.948 µM (active). For the same compound, the GI50 is 2.33 µM (inactive) with SF-295; 1.69 µM (inactive) in the assay with LOX IMVI; 2.54 µM (inactive) in the assay with SN12C; 0.36 µM (active) in the assay on SK-MEL-5; 1.27 µM (inactive) in the assay with OVCAR-8; 2.6 µM (inactive) in the assay on SW-620.
As to `Cc1cn(CC2=NCC(C)(C)CN2)c(=O)[nH]c1=O`, the GI50 with MDA-N, in the assay with TK-10, with UO-31, with UACC-257, in the assay on IGROV-1 and with HCT-116 was > 100 µM (inactive) in each case. Besides, the GI50 in the assay on ACHN is > 100 µM (inactive); in the assay on HCT-15, more than 100 µM; with NCI-H23 it was > 100 µM (inactive); in the assay on SF-295 it was > 100 µM (inactive); in the assay with LOX IMVI, > 100 µM (inactive); in the assay with UACC-62 it was > 100 µM (inactive). Moreover, the GI50 with SN12C, in the assay on SK-MEL-5, in the assay on OVCAR-8 and in the assay with SW-620 was > 100 µM (inactive) throughout.
Regarding `O=C(O)c1cc2ccccc2c(/N=N/c2c([N+](=O)[O-])cc([N+](=O)[O-])cc2S(=O)(=O)O)c1O`, the GI50 with MOLT-4, with CAKI-1, with MDA-N, with TK-10, with UO-31 and in the assay with UACC-257 was > 100 µM (inactive) each time. Further, the GI50 is > 100 µM (inactive) in the assay on IGROV-1; > 100 µM (inactive) in the assay on HCT-116; > 100 µM (inactive) in the assay on ACHN; more than 100 µM in the assay on HCT-15; > 100 µM (inactive) with KM12; > 100 µM (inactive) with NCI-H23. In addition, the GI50 in the assay with SF-295, in the assay with LOX IMVI, in the assay with UACC-62, with SN12C, with SK-MEL-5 and in the assay with OVCAR-8 was > 100 µM (inactive) in each case. Also, the GI50 in the assay with SW-620 was > 100 µM (inactive).
In the case of `O=C1/C(=C\c2cccs2)Oc2ccccc21`, the GI50 with MOLT-4 is 33.9 µM (inactive); in the assay on CAKI-1 it was 33.6 µM (inactive); with MDA-N, > 100 µM (inactive); with TK-10, 90.6 µM (inactive); in the assay on UO-31, 33 µM (inactive); with UACC-257, 63.1 µM (inactive). In addition, the GI50 in the assay with IGROV-1 was 26.7 µM (inactive); with HCT-116, 60.4 µM (inactive); with ACHN, 47.2 µM (inactive); in the assay with HCT-15, 36.6 µM; with KM12, 59.4 µM (inactive); with NCI-H23 it was 40.6 µM (inactive). Besides, the GI50 is 74 µM (inactive) in the assay on SF-295; 51.3 µM (inactive) with LOX IMVI; 75.2 µM (inactive) in the assay on UACC-62; > 100 µM (inactive) with SN12C; 51.6 µM (inactive) in the assay with SK-MEL-5; 70.8 µM (inactive) in the assay on OVCAR-8. In addition, in the assay with SW-620, the GI50 is > 100 µM (inactive).
Consider `CCOC(=O)C1(O)C(=O)C2=C3C(=O)OC(C4OC(=O)c5c(c(O)c(O)c(O)c5C31)-c1c(cc(O)c(O)c1O)C(=O)OC1COC(=O)c3cc(O)c(O)c(O)c3-c3c(cc(O)c(O)c3O)C(=O)OC14)[C@@H]2O` (some centres not stated), for which the GI50 is 22 µM (inactive) in the assay with MOLT-4; 13 µM (inactive) in the assay on CAKI-1; 14.9 µM (inactive) in the assay on MDA-N; 26.4 µM (inactive) in the assay on UO-31; 28.5 µM (inactive) in the assay on UACC-257; 26 µM (inactive) in the assay with IGROV-1. Also, the GI50 is 15.6 µM (inactive) in the assay on HCT-116; 17.8 µM (inactive) in the assay on ACHN; 17.6 µM in the assay with HCT-15; 33.7 µM (inactive) in the assay with KM12; 16.3 µM (inactive) in the assay with NCI-H23; 19.1 µM (inactive) in the assay on SF-295. The GI50 with LOX IMVI was 15.8 µM (inactive); with UACC-62, 20 µM (inactive); with SN12C, 17 µM (inactive); in the assay on SK-MEL-5 it was 14.3 µM (inactive); with OVCAR-8, 19.8 µM (inactive); in the assay with SW-620, 20.7 µM (inactive).
In the case of `COc1cc(/C=C/c2ccc(OC)c(OC)c2OC)cc(OC)c1OC`, the GI50 in the assay on MOLT-4 is 19.3 µM (inactive); with CAKI-1, 25.1 µM (inactive); with SF-539 it was 18.5 µM (inactive); with TK-10 it was 28.2 µM (inactive); in the assay with UO-31 it was 14.1 µM (inactive); with UACC-257 it was 20.9 µM (inactive). Besides, the GI50 in the assay on IGROV-1 was 28.2 µM (inactive); in the assay on HCT-116 it was 14.6 µM (inactive); in the assay on ACHN it was 25.1 µM (inactive); in the assay with HCT-15 it was 18.5 µM; in the assay on KM12, 22 µM (inactive); in the assay on NCI-H23 it was 23.6 µM (inactive). Further, the GI50 in the assay with SF-295 was 20.8 µM (inactive); with LOX IMVI, 16.1 µM (inactive); in the assay with UACC-62 it was 13.4 µM (inactive); with SN12C it was 21.4 µM (inactive); in the assay on SK-MEL-5 it was 14.7 µM (inactive); in the assay on OVCAR-8, 24.9 µM (inactive). Moreover, the GI50 in the assay with SW-620 is 29.3 µM (inactive).
Turning to `CC1CSc2nc3nc(S)nc-3c(O)n2C1` (configuration not stated), the GI50 in the assay on MOLT-4, with CAKI-1, in the assay with SF-539, in the assay on TK-10, in the assay with UO-31 and with UACC-257 was > 100 µM (inactive) each time. Also, the GI50 in the assay on IGROV-1 was > 100 µM (inactive); in the assay on HCT-116, > 100 µM (inactive); in the assay with ACHN it was > 100 µM (inactive); in the assay with HCT-15, more than 100 µM; in the assay with KM12 it was > 100 µM (inactive); in the assay with NCI-H23 it was > 100 µM (inactive). Moreover, the GI50 with SF-295, in the assay with LOX IMVI, in the assay with UACC-62, with SN12C, in the assay on SK-MEL-5 and in the assay with OVCAR-8 was > 100 µM (inactive) each time. The GI50 with SW-620 is > 100 µM (inactive).
As to `COc1cc2c(c3c1c(=O)c1ccccc1n3C)C=CC(C)(C)O2` [ACRONINE], the GI50 is 16.2 µM (inactive) in the assay on MOLT-4; > 100 µM (inactive) in the assay on CAKI-1; 37.8 µM (inactive) in the assay with SF-539; > 100 µM (inactive) with TK-10; 49.9 µM (inactive) in the assay on UO-31; > 100 µM (inactive) with UACC-257. Also, the GI50 in the assay with IGROV-1 was 58.5 µM (inactive); with HCT-116, > 100 µM (inactive); in the assay on ACHN it was 45.4 µM (inactive); with HCT-15, 45.3 µM; in the assay with KM12, > 100 µM (inactive); in the assay with NCI-H23, 33.4 µM (inactive). For the same compound, the GI50 in the assay with SF-295 was 32.3 µM (inactive); with LOX IMVI it was > 100 µM (inactive); with UACC-62, 96.2 µM (inactive); in the assay with SN12C it was > 100 µM (inactive); with SK-MEL-5 it was > 100 µM (inactive); in the assay on OVCAR-8 it was > 100 µM (inactive). Moreover, in the assay with SW-620, the GI50 is > 100 µM (inactive).
